From ChEMBL document CHEMBL1154227, “Guttiferones O and P, prenylated benzophenone MAPKAPK-2 inhibitors from Garcinia solomonensis” (J Nat Prod, 2009)

Target: MAP kinase-activated protein kinase 2 (Homo sapiens, UniProt P49137)
Test: Inhibition of GST-tagged MAPKAPK2 assessed as [33P] incorporation after 40 mins by scintillation proximity assay

Sequence of MAP kinase-activated protein kinase 2 (P49137 whole entry): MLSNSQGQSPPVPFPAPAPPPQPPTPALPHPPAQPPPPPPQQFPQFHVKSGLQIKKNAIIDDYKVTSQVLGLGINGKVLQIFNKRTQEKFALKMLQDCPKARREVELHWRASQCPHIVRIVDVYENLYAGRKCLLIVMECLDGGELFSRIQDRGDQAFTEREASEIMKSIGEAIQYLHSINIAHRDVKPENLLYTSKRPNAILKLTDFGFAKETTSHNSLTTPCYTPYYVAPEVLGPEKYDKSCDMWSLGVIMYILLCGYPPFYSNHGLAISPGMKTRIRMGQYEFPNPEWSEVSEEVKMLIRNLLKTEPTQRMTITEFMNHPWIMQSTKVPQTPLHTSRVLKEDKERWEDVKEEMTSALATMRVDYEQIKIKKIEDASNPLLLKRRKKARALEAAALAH

IC50 [µM]	Structure (SMILES)
22	CC(C)=CCC/C(C)=C/C[C@]12C[C@@H](CC=C(C)C)C(C)(C)[C@](C/C=C(\C)CCC=C(C)C)(C(=O)C(C(=O)c3ccc(O)c(O)c3)=C1O)C2=O [GUTTIFERONE O]
22	CC(C)=CCC/C(C)=C/C[C@]12C[C@@H](CC=C(C)C)[C@](C)(CCC=C(C)C)[C@](CC=C(C)C)(C(=O)C(C(=O)c3ccc(O)c(O)c3)=C1O)C2=O [GUTTIFERONE P]
